Results: PubChem BioAssay (NCI)
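Exposure lasted 48 hours, with cells grown in 96-well plates and compounds tested at five concentrations. TGI marks complete inhibition of growth.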

Legend:
Assay in all cases: NCI-60 cell line screen, 48 h
TK-10 renal = test system: TK-10 renal
NCI-H460 lung = test system: NCI-H460 lung
UACC-257 melanoma = test system: UACC-257 melanoma
LXFL 529 NSCLC = test system: LXFL 529 NSCLC
SK-MEL-5 melanoma = test system: SK-MEL-5 melanoma
DMS 273 small cell lung = test system: DMS 273 small cell lung
M14 melanoma = test system: M14 melanoma
COLO 205 colon = test system: COLO 205 colon
NCI-H23 lung = test system: NCI-H23 lung
SK-MEL-28 melanoma = test system: SK-MEL-28 melanoma
MOLT-4 leukemia = test system: MOLT-4 leukemia
DMS 114 small cell lung = test system: DMS 114 small cell lung
HOP-62 NSCLC = test system: HOP-62 NSCLC
CAKI-1 renal = test system: CAKI-1 renal
HCT-116 colon = test system: HCT-116 colon
SN12C renal = test system: SN12C renal
HCC-2998 colon = test system: HCC-2998 colon
SF-539 CNS = test system: SF-539 CNS
HT29 colon = test system: HT29 colon
OVCAR-3 ovarian = test system: OVCAR-3 ovarian
OVCAR-8 ovarian = test system: OVCAR-8 ovarian
OVCAR-4 ovarian = test system: OVCAR-4 ovarian
786-0 renal = test system: 786-0 renal
OVCAR-5 ovarian = test system: OVCAR-5 ovarian
KM12 colon = test system: KM12 colon
KM20L2 colon = test system: KM20L2 colon
HL-60(TB) leukemia = test system: HL-60(TB) leukemia
HOP-18 NSCLC = test system: HOP-18 NSCLC
RPMI-8226 leukemia = test system: RPMI-8226 leukemia
M19-MEL melanoma = test system: M19-MEL melanoma
SW-620 colon = test system: SW-620 colon
SR leukemia = test system: SR leukemia
HOP-92 NSCLC = test system: HOP-92 NSCLC
SK-MEL-2 melanoma = test system: SK-MEL-2 melanoma
K-562 leukemia = test system: K-562 leukemia
DLD-1 colon = test system: DLD-1 colon
EKVX NSCLC = test system: EKVX NSCLC
SK-OV-3 ovarian = test system: SK-OV-3 ovarian
ACHN renal = test system: ACHN renal
NCI-H226 lung = test system: NCI-H226 lung
SNB-19 CNS = test system: SNB-19 CNS
A498 renal = test system: A498 renal
SNB-78 CNS = test system: SNB-78 CNS
SF-268 CNS = test system: SF-268 CNS
A549 NSCLC = test system: A549 NSCLC
HCT-15 colon = test system: HCT-15 colon
XF 498 CNS = test system: XF 498 CNS
RXF-631 renal = test system: RXF-631 renal
U251 CNS = test system: U251 CNS
SNB-75 CNS = test system: SNB-75 CNS
UACC-62 melanoma = test system: UACC-62 melanoma
NCI-H522 lung = test system: NCI-H522 lung
CCRF-CEM leukemia = test system: CCRF-CEM leukemia
UO-31 renal = test system: UO-31 renal
LOX IMVI melanoma = test system: LOX IMVI melanoma
IGROV1 ovarian = test system: IGROV1 ovarian
SF-295 CNS = test system: SF-295 CNS
MALME-3M melanoma = test system: MALME-3M melanoma

Measured: TGI

CC(C)N(C(=O)C12C3C4C1C1C4(C#N)C3C12C(=O)O)C(C)C (stereo not drawn)
> 82 µM: CCRF-CEM leukemia
> 63 µM: HL-60(TB) leukemia
41.4 µM: SR leukemia
> 66.7 µM: RPMI-8226 leukemia
> 68.2 µM: HCT-15 colon
> 100 µM: all other assays above
